For test [1], the system named is RhoA. Put plainly: thrombin induced RhoA activation in HUVEC culture (Rho pull-down, Western blot). The format is cell-based, human. To be noted: 5 U/ml thrombin alone, 5 min. The protocol: The biological effect of the compounds was established in a model thrombin induced RhoA activation in human umbilical vein endothelial cell (HUVEC) culture.
HUVEC are grown to confluence under standard conditions. Before induction of Rho activity HUVEC were starved for 4 h by using IMDM (Gibco) without growth factor and serum supplements. After the starvation period 5 U/ml Thrombin (Calbiochem) or 5 U thrombin plus 50 μg/ml of test compound are added to the starvation medium for 1, 5 and 10 min. Active RhoA was isolated using Rho Assay Reagent from Upstate according to manufactures instructions. Isolates were separated on a 15% polyacrylamid gel and blotted on Nitrocellulose-Membrane (Bio-Rad). RhoA was dedected by using Anti-Rho (-A, -B, -C), clone55 from Upstate (1:500).
A general note: In western blotting, separated proteins are transferred to a membrane and probed.

The target in test [2] is T1, vascular endothelial (VE) cadherin (human, UniProt P33151 48-784).
T1 sequence (looked up): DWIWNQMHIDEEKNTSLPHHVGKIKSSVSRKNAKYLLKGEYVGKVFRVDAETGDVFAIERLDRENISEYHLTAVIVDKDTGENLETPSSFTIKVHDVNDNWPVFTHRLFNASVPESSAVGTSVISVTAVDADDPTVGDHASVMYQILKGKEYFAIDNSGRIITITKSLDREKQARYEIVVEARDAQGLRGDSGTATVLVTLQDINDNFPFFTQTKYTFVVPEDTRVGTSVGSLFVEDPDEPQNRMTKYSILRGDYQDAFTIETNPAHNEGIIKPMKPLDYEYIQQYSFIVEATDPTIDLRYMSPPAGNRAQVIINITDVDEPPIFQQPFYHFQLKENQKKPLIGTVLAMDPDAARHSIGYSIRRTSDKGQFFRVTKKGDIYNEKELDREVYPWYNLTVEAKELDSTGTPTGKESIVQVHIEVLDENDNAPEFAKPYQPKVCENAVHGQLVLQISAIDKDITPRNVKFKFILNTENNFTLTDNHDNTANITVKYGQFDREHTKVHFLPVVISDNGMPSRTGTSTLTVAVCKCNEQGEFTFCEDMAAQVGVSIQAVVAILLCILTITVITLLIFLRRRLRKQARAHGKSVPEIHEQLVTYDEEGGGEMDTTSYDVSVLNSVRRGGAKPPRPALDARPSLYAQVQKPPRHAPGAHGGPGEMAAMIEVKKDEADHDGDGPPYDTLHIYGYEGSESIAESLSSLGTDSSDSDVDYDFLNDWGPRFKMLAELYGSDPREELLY
The experiment in a line: cell-based or functional assay.

No end group written: not given here.

As for thrombin, the “Relative RhoA stimulation compared to unstimulated control” value in test [1] worked out at 3.8.

Take GHRPLDKKREEAPSLRPAPPPISGG-OH: the “Relative RhoA stimulation compared to unstimulated control” value in test [2] was 0.85 fold of unstimulated control.

(Values after patent publication US20090286725A1, “PEPTIDES AND DERIVATIVES THEREOF, THE MANUFACTURING THEREOF AS WELL AS THEIR USE FOR PREPARING A THERAPEUTICALLY AND/OR PREVENTIVELY ACTIVE PHARMACEUTICAL COMPOSITION” (FIBREX MEDICAL RESEARCH & DEVELOPMENT GMBH, priority 2008, published 2009).)
